Results on nine compounds are retold here after patent publication US9447081B2, “Substituted pyrimidines as pharmaceuticals and insecticides” (SHENYANG SINOCHEM AGROCHEMICALS R&D CO., LTD., priority 2012, dated 2016).

The structures appear in SMILES notation.

One assay deals with cucumber gray mold. Put plainly: Fungicidal activity in vitro (96-well, High Through Put), cucumber gray mold. The class given is cell-based. Conditions: 25 mg/L, 24 hours, read-out: inhibition rate against cucumber gray mold.
In a further assay the test system is corn rust. Put plainly: Protectant activity in vivo (whole plant), corn rust. To be noted: for pest or weed control at 400 µg/mL / pest or weed control at 100 µg/mL / pest or weed control at 25 µg/mL: Zea mays, 168 h, read-out: protectant activity against corn rust. Here is the method:
(§1) The method is as followed: The whole plant is used in this test. The compound is dissolved in a proper solvent to get mother solution. The proper solvent is selected from acetone, methanol, DMF and so on according to their dissolving capability to the sample. […] The testing solution is sprayed to the host plant by a special plant sprayer. The plant is inoculated with fungus after 24 hours. According to the infecting characteristic of fungus, the plant is stored in a humidity chamber and then transferred into greenhouse after infection is finished. And the other plants are placed in greenhouse directly. The activity of compound is obtained by eyeballing after 7 days in common.

In another assay the test system is wheat powdery mildew. Description: Protectant activity in vivo (whole plant), wheat powdery mildew. As for the experimental part: as §1
The next assay concerns diamond back moth. Put plainly: Insecticidal activity against diamond back moth (airbrush spray). Format: in vivo. To be noted: 600 mg/L, mortality after 72 h; for pest or weed control at 600 µg/mL: read-out: control of the second instar larvae of diamond back moth. As for the experimental part:
(§2) Compounds were dissolved in mixed solvent (acetone:methanol=1:1), and diluted to required concentration with water containing 0.1% of tween 80.
(§3) Diamond back moth, armyworm, Green Peach Aphid and carmine spider mite were used as targets and the method of spraying by airbrush was used for determination of insecticidal biassays.
The method of spraying by airbrush: The cabbage leaves were made into plates of 2 cm diameter by use of punch. A test solution (0.5 ml) was sprayed by airbrush at the pressure of 0.7 kg/cm^2 to both sides of every plate. 10 Second instar larvae were put into the petri-dishes after the leaf disc air-dried and 3 replicates were set for each treatment. Then the insects were maintained in observation room (25° C., 60˜70% R.H.). Scores were conducted and mortalities were calculated after 72 h.

The next assay has as its system armyworm. Put plainly: Insecticidal activity against armyworm (airbrush spray). Conditions: 600 mg/L, second instar larvae, mortality after 72 h. Format: in vivo. Here is the method:
as §2, §3
The method of spraying by airbrush: The corn leaves were made into plates of 2 cm diameter by use of punch. A test solution (0.5 ml) was sprayed by airbrush at the pressure of 0.7 kg/cm^2 to both sides of every plate. 10 Second instar larvae were put into the petri-dishes after the leaf disc air-dried and 3 replicates were set for each treatment. Then the insects were maintained in observation room (25° C., 60˜70% R.H.). Scores were conducted and mortalities were calculated after 72 h.

The next assay deals with carmine spider mite. Put plainly: Acaricidal activity against carmine spider mite (airbrush spray). The class given is in vivo. Conditions: 100 mg/L, adults, mortality after 72 hrs; for pest or weed control at 100 µg/mL: Tetranychus cinnabarinus. As for the experimental part: as §2, §3
Method: Broadbean shoots with two true leaves in pot were taken, the healthy adults of carmine spider mite were inoculated to the leaves. The adults were counted and then sprayed with airbrush at the pressure of 0.7 kg/cm^2 and at dose of 0.5 ml. 3 replicates were set for each treatment. And then they were maintained in standard observation room. Scores were conducted and mortalities were calculated after 72 hrs.

In assay [1] the test system is Green peach aphids (Myzus Persicae Sulzer). Put plainly: Activity against green peach aphid (airbrush foliar spray). Conditions: death rate after 48 h; for pest or weed control at 600 µg/mL / pest or weed control at 10 µg/mL / pest or weed control at 100 µg/mL: Myzus persicae, foliar, 48 h; for pest or weed control at 600 µg/mL / pest or weed control at 100 µg/mL: read-out: Insecticidal activity against peach aphid (control); for pest or weed control at 10 µg/mL: read-out: Insecticidal activity against peach aphid. Format: in vivo. As for the experimental part:
as §2, §3
Method: Filter papers were put in culture dishes (Diameter=6 cm), and water was dripped on filter papers for preserving moisture. Green peach aphids (Myzus Persicae Sulzer) were maintained on cabbage. Leaves (Diameter=3 cm) of approximately 15-30 aphids were put in the culture dishes. Bioactivity tests were used the method of Airbrush Foliar Spray, pressure=10 psi (0.7 kg/cm2), spray volume=0.5 mL. The studies were conducted at three constant temperatures 25±1 C. in incubator cabinets with 60±5% RH. Survey the survival aphids after 48 h and calculate the death rates.

The test system of another assay is cucumber downy mildew. Put plainly: Protectant activity in vivo (whole plant), cucumber downy mildew. Here is the method: as §1
For another assay, the system named is rice blast. Put plainly: microbe, parasite or virus in culture. The class given is cell-based. To be noted: for inhibition rate against rice blast: in vitro, 24 hours.
Setting [2] is: Triticum aestivum, 168 h, 400 mg/L, read-out: protectant activity against wheat powdery mildew.
The mark [3] stands for this setting: Cucumis sativus, 168 h, 400 mg/L, read-out: protectant activity against cucumber downy mildew.
The mark [4] stands for this setting: Pyricularia oryzae, 24 h, read-out: inhibition rate against rice blast.
[5] abbreviates: Triticum aestivum, 168 h, 25 mg/L, read-out: protectant activity against wheat powdery mildew.
Where [6] appears, read: Triticum aestivum, 168 h, 100 mg/L, read-out: protectant activity against wheat powdery mildew.
The mark [7] stands for this setting: Cucumis sativus, 168 h, 100 mg/L, read-out: protectant activity against cucumber downy mildew.

For orientation: inhibition means the relative decrease from the control value, in per cent.

In the case of `c1ccc2c(NCCc3ccc4c(c3)OCO4)ncnc2c1` [ACTA-1], in the assay with cucumber gray mold, the inhibition at 25 µg/mL was 50%. The pest or weed control at 400 µg/mL in the assay with corn rust (400 mg/L) and in the assay on wheat powdery mildew (setting [2]) was 0% each time. The pest or weed control at 600 µg/mL in the assay with diamond back moth came to 40%; in the assay on armyworm, 40%; in assay [1] (600 mg/L), 0%. The compound further displayed a pest or weed control at 100 µg/mL with carmine spider mite of 0%.

Consider `COc1cc(CNc2ncnc(C)c2Cl)ccc1O` [CK3], for which the inhibition at 25 µg/mL with cucumber gray mold was determined as 0%. Further, the pest or weed control at 400 µg/mL in the assay on cucumber downy mildew (setting [3]), with corn rust (400 mg/L) and in the assay with wheat powdery mildew (setting [2]) was 0% each time. Moreover, the pest or weed control at 600 µg/mL (in the assay with diamond back moth; with armyworm; in assay [1] (600 mg/L)) was 0% in each case. Moreover, the pest or weed control at 100 µg/mL in the assay on carmine spider mite was found to be 0%.

For the compound `Cc1ncnc(NCCc2ccc(O)cc2)c1Cl` [CK4], the inhibition at 25 µg/mL in the assay with rice blast (setting [4]) and in the assay on cucumber gray mold was 0% each time. The pest or weed control at 400 µg/mL in the assay with cucumber downy mildew (setting [3]), in the assay with corn rust (400 mg/L) and in the assay with wheat powdery mildew (setting [2]) was 0% in each case. Moreover, the pest or weed control at 600 µg/mL (with diamond back moth; in the assay with armyworm; in [1] (600 mg/L)) was 0% in each case. This compound showed a pest or weed control at 100 µg/mL in the assay with carmine spider mite of 0%.

For the compound `COc1ccc(CCNc2ncnc(C(F)(F)F)c2Cl)cc1OC` [CK7], the inhibition at 25 µg/mL with rice blast (setting [4]) and in the assay on cucumber gray mold was 0% throughout. Besides, the pest or weed control at 100 µg/mL with corn rust (100 mg/L) amounted to 0%; with wheat powdery mildew (setting [6]), 30%; in [1] (100 mg/L), 37%. The results for the pest or weed control at 400 µg/mL in the assay on corn rust (400 mg/L) and with wheat powdery mildew (setting [2]) were 70% and 80%, respectively. Also, in the assay with wheat powdery mildew (setting [5]), the pest or weed control at 25 µg/mL worked out at 0%. The pest or weed control at 600 µg/mL with armyworm is 0%; in [1] (600 mg/L) it was 66%. Also, the pest or weed control at 10 µg/mL in assay [1] (10 mg/L) was 0%.

`COc1ccc(CCNc2ncnc(C)c2Cl)cc1OC` [CK8]: the inhibition at 25 µg/mL in the assay on rice blast (setting [4]) was 50%; in the assay with cucumber gray mold it was 0%. Further, the pest or weed control at 25 µg/mL in the assay with cucumber downy mildew (Cucumis sativus, 168 h, 25 mg/L, read-out: protectant activity against cucumber downy mildew) turned out to be 0%; in the assay on wheat powdery mildew (setting [5]), 10%. The pest or weed control at 50 µg/mL with cucumber downy mildew (Cucumis sativus, 168 h, 50 mg/L, read-out: protectant activity against cucumber downy mildew) is 20%. For the same compound, the pest or weed control at 100 µg/mL stood at 45% in the assay with cucumber downy mildew (setting [7]), 0% with corn rust (100 mg/L) and 80% in the assay with wheat powdery mildew (setting [6]). Further, the pest or weed control at 400 µg/mL worked out at 98% in the assay on cucumber downy mildew (setting [3]), 100% in the assay on corn rust (400 mg/L) and 100% with wheat powdery mildew (setting [2]). Moreover, in the assay with wheat powdery mildew (Triticum aestivum, 168 h, 6.25 mg/L, read-out: protectant activity against wheat powdery mildew), the pest or weed control at 6.25 µg/mL was 0%. Moreover, the pest or weed control at 600 µg/mL (in the assay on diamond back moth; in the assay on armyworm; in assay [1] (600 mg/L)) was 0% each time.

For `Cc1c(Cl)c(NCCc2ccc3c(c2)OCO3)nc[n+]1CC(=O)c1ccc(Cl)cc1` [CK10], the inhibition at 25 µg/mL in the assay with rice blast (setting [4]) and with cucumber gray mold was 0% in each case. Besides, the pest or weed control at 400 µg/mL in the assay with cucumber downy mildew (setting [3]), in the assay on corn rust (400 mg/L) and with wheat powdery mildew (setting [2]) was 0% throughout. Also, the pest or weed control at 600 µg/mL (in the assay on diamond back moth; with armyworm; in assay [1] (600 mg/L)) was 0% in each case. Moreover, the pest or weed control at 100 µg/mL in the assay on carmine spider mite came to 0%.

For `ClCc1ncnc(NCCc2ccc3c(c2)OCO3)c1Cl` [CK11], the inhibition at 25 µg/mL with cucumber gray mold stood at 50%. Further, the pest or weed control at 100 µg/mL was 0% with cucumber downy mildew (setting [7]), 35% in the assay on corn rust (100 mg/L), 25% in the assay with carmine spider mite and 0% in assay [1] (100 mg/L). In addition, the results for the pest or weed control at 400 µg/mL with cucumber downy mildew (setting [3]), in the assay on corn rust (400 mg/L) and in the assay with wheat powdery mildew (setting [2]) were 30%, 85% and 0%, respectively. Besides, the pest or weed control at 25 µg/mL with corn rust (25 mg/L) came to 0%. Further, the results for the pest or weed control at 600 µg/mL (in the assay with diamond back moth; in the assay on armyworm; in assay [1] (600 mg/L)) were 0%, 0% and 88%, respectively. In addition, the pest or weed control at 10 µg/mL in assay [1] (10 mg/L) worked out at 0%.

`FC(F)c1ncnc(NCCc2ccc3c(c2)OCO3)c1Cl` [Compound 18]: the “inhibition rate against rice blast” value worked out at 80% in the assay on rice blast (0.9 mg/L), 80% in the assay on rice blast (2.8 mg/L), 100% in the assay with rice blast (8.3 mg/L) and 100% in the assay on rice blast (25 mg/L). The “protectant activity against cucumber downy mildew” value is given as 80% in the assay with cucumber downy mildew (12.5 mg/L); 100% with cucumber downy mildew (25 mg/L); 100% in the assay with cucumber downy mildew (50 mg/L); 100% in the assay on cucumber downy mildew (100 mg/L); 100% with cucumber downy mildew (400 mg/L). The “protectant activity against corn rust” value in the assay on corn rust (25 mg/L) was 98%; with corn rust (100 mg/L), 100%; with corn rust (400 mg/L), 100%. The “protectant activity against wheat powdery mildew” value in the assay with wheat powdery mildew (6.25 mg/L), in the assay on wheat powdery mildew (25 mg/L), with wheat powdery mildew (100 mg/L) and in the assay on wheat powdery mildew (400 mg/L) was 100% throughout. In addition, the “control of the second instar larvae of diamond back moth” value with diamond back moth is recorded as 100%. Moreover, the “control of the armyworm” value in the assay with armyworm is 100%. The “control against carmine spider mite” value in the assay on carmine spider mite is on record as 90%. In assay [1] (10 mg/L), the “Insecticidal activity against peach aphid” value came out at 68%. The “Insecticidal activity against peach aphid (control)” value in assay [1] (100 mg/L) and in assay [1] (600 mg/L) was 100% each time.

As for `Cc1ncnc(NC(C)c2ccc3c(c2)OC(F)(F)O3)c1Cl` (centres unmarked) [PC-1], the inhibition at 8.3 µg/mL in the assay with rice blast (setting [4]) came out at 0%. Moreover, the inhibition at 25 µg/mL with cucumber gray mold stood at 50%. Besides, the pest or weed control at 25 µg/mL with corn rust (25 mg/L) and in the assay with wheat powdery mildew (setting [5]) was 0% throughout. The pest or weed control at 100 µg/mL with corn rust (100 mg/L) worked out at 20%; in the assay with wheat powdery mildew (setting [6]), 80%; with carmine spider mite it was 51%; in assay [1] (100 mg/L) it was 0%. The pest or weed control at 400 µg/mL with corn rust (400 mg/L) turned out to be 70%; in the assay with wheat powdery mildew (setting [2]), 100%. For the same compound, the pest or weed control at 600 µg/mL in the assay with diamond back moth is 0%; with armyworm, 0%; in assay [1] (600 mg/L), 52%.
